{"source": "patent US20190343908A1", "about": "“Therapeutic Combination for the Treatment of Cancer” (Nerium Biotechnology Inc., priority 2011, published 2019)", "key": {"[1]": {"tested_on": "LNCaP prostate cancer cell line", "experiment": "Methyl-Tetrazolium viability assay, LNCaP", "type": "cell-based, human", "settings": "for ABSORBANCE: LNCaP, 0.1 μg/mL cisplatin", "text": "The Methyl-Tetrazolium dye assay measures the activity of enzymes in mitochondria. The dye precursor is taken up by cells, where it undergoes reduction to the purple formazan. It measures only the mitochondrial activity and, thus, it is not always a reliable indication of whether the cells themselves are alive or dead, since even a recently dead cell has […] enzyme activity in mitochondria. Intracellular glucose concentration, pH, and time before assay all affect the measurements.\n(§1) The Methyl Tetrazolium, Sulforhodamine B, and Crystal Violet assays were used to assess cell viabilities. The incubation times were 24 hours, 48 hours, and 72 hours. The Nerium oleander extract Anvirzel™ (a hot water extract of oleander obtained from Salud Integral, Honduras) was tested in concentrations ranging from 0.01 ng/mL to 10 ng/mL.\n(§2) Cells were detached by trypsinization (Trypsin-0.25% EDTA, Invitrogen, 25200-072) during the logarithmic phase of culture growth and plated in 96-well plates (18.000 cells/well) (Corning, Costar 359) in a final volume of 200 μl of medium per well. […] The absorbance was measured after 24 hours, 48 hours, and 72 hours of incubation.\nFor the Methyl-Tetrazolium assay, the dye (Sigma, M2128; 5 mg/mL, diluted in phosphate-buffered saline) was added to each well and plates were incubated for 3 hours at 37° C. After the end of the incubation period, the medium was discarded and the cells were rinsed with phosphate-buffered saline. Finally, the formazan crystals were dissolved in dimethylsulphoxide (Sigma, D4540).\n(§3) The optical density of each plate was measured on a μQuant spectrophotometer and the data were analyzed with Gen5 software (μQuant Biomolecular Spectrophotometer MQX200 and Gen5™ Microplate Data Collection & Analysis software, BioTek® Instruments. Inc, April 2008). Absorbance was measured at 570 nm for all assays and a second wavelength was measured in order to subtract noise. For the Methyl-Tetrazolium assay this second wavelength was 630 nm and for the Sulforhodamine B and Crystal Violet assays it was 690 nm."}, "HT55 (colorectal cancer)": {"tested_on": "HT55 (colorectal cancer)", "experiment": "Crystal Violet viability assay, HT55", "type": "cell-based, human", "parameters": "key: absorbance at 570 nm (crystal violet), background wavelength subtracted", "text": "Three different viability assays were chosen to complement each other and yielded results dependent on concentration and cell line: the Methyl Tetrazolium dye assay, the Sulforhodamine B fluorescent dye assay, and the Crystal Violet dye assay.\nThe Sulforhodamine B and Crystal Violet assays provide information about protein and were used to complement the Methyl-Tetrazolium dye assay. […] It is used for the quantification of cellular proteins of cultured cells. The assay using Crystal Violet, a dye that binds electrostatically to proteins and stains DNA, provides a reliable, simple assay for measuring viability of cells.\nas §1, §2\nFor the Crystal Violet assay, the medium was removed from the 96-well plates, the plates rinsed with PBS (Sigma, P3813) and then the cells were […] by the addition of 10% formalin (MERCK, 1.04003.2500) for 20 minutes at RT. Formalin was removed and 0.25% aqueous crystal violet (Sigma, HT901), dissolved in water, was added for 10 minutes at RT. Unbound Crystal Violet was rinsed by washing with water and finally 33% acetic acid was added to dissolve the dye.\nas §3"}}, "data": [{"compound": "N.N.[Cl][Pt][Cl]", "note": "[cisplatin]", "values": [{"measurement": "MTT Average", "setting": "[1]; LNCaP Run 3, 24 h, 0.1 μg/ml CDDP", "value": 0.11}, {"measurement": "MTT Average", "setting": "[1]; LNCaP Run 3, 24 h, 1 μg/ml CDDP", "value": 0.008}, {"measurement": "MTT Average", "setting": "[1]; LNCaP Run 3, 24 h, 10 μg/ml CDDP", "value": 0.017}, {"measurement": "MTT Average", "setting": "[1]; LNCaP Run 3, 24 h, 100 μg/ml CDDP", "value": 0.006}, {"measurement": "MTT Average", "setting": "[1]; LNCaP Run 3, 48 h, 0.1 μg/ml CDDP", "value": 0.157}, {"measurement": "MTT Average", "setting": "[1]; LNCaP Run 3, 48 h, 1 μg/ml CDDP", "value": 0.011}, {"measurement": "MTT Average", "setting": "[1]; LNCaP Run 3, 48 h, 10 μg/ml CDDP", "value": 0.009}, {"measurement": "MTT Average", "setting": "[1]; LNCaP Run 3, 48 h, 100 μg/ml CDDP", "value": 0.009}, {"measurement": "MTT Average", "setting": "[1]; LNCaP Run 3, 72 h, 0.1 μg/ml CDDP", "value": 0.171}, {"measurement": "MTT Average", "setting": "[1]; LNCaP Run 3, 72 h, 1 μg/ml CDDP", "value": 0.01}, {"measurement": "MTT Average", "setting": "[1]; LNCaP Run 3, 72 h, 10 μg/ml CDDP", "value": 0.009}, {"measurement": "MTT Average", "setting": "[1]; LNCaP Run 3, 72 h, 100 μg/ml CDDP", "value": 0.008}, {"measurement": "ABSORBANCE", "setting": "[1]; 48 h", "value": 0.161}, {"measurement": "ABSORBANCE", "setting": "[1]; 72 h", "value": 0.17}, {"measurement": "Average MTT 24 h", "setting": "[1]; Run 1, 0.1 μg/ml CDDP", "value": 0.061}, {"measurement": "Average MTT 48 h", "setting": "[1]; Run 1, 0.1 μg/ml CDDP", "value": 0.116}, {"measurement": "Average MTT 24 h", "setting": "[1]; Run 1, 1 μg/ml CDDP", "value": 0.012}, {"measurement": "Average MTT 48 h", "setting": "[1]; Run 1, 1 μg/ml CDDP", "value": 0.015}, {"measurement": "Average MTT 72 h", "setting": "[1]; Run 1, 1 μg/ml CDDP", "value": 0.016}, {"measurement": "Average MTT 24 h", "setting": "[1]; Run 1, 10 μg/ml CDDP", "value": 0.02}, {"measurement": "Average MTT 48 h", "setting": "[1]; Run 1, 10 μg/ml CDDP", "value": 0.011}, {"measurement": "Average MTT 72 h", "setting": "[1]; Run 1, 10 μg/ml CDDP", "value": 0.01}, {"measurement": "Average MTT 24 h", "setting": "[1]; Run 1, 100 μg/ml CDDP", "value": 0.011}, {"measurement": "Average MTT 48 h", "setting": "[1]; Run 1, 100 μg/ml CDDP", "value": 0.017}, {"measurement": "Average MTT 72 h", "setting": "[1]; Run 1, 100 μg/ml CDDP", "value": 0.01}, {"measurement": "Average MTT 24 h", "setting": "[1]; Run 2, 0.1 μg/ml CDDP", "value": 0.136}, {"measurement": "Average MTT 48 h", "setting": "[1]; Run 2, 0.1 μg/ml CDDP", "value": 0.161}, {"measurement": "Average MTT 72 h", "setting": "[1]; Run 2, 0.1 μg/ml CDDP", "value": 0.17}, {"measurement": "Average MTT 24 h", "setting": "[1]; Run 2, 1 μg/ml CDDP", "value": 0.01}, {"measurement": "Average MTT 48 h", "setting": "[1]; Run 2, 1 μg/ml CDDP", "value": 0.016}, {"measurement": "Average MTT 72 h", "setting": "[1]; Run 2, 1 μg/ml CDDP", "value": 0.026}, {"measurement": "Average MTT 24 h", "setting": "[1]; Run 2, 10 μg/ml CDDP", "value": 0.014}, {"measurement": "Average MTT 48 h", "setting": "[1]; Run 2, 10 μg/ml CDDP", "value": 0.015}, {"measurement": "Average MTT 72 h", "setting": "[1]; Run 2, 10 μg/ml CDDP", "value": 0.012}, {"measurement": "Average MTT 24 h", "setting": "[1]; Run 2, 100 μg/ml CDDP", "value": 0.017}, {"measurement": "Average MTT 48 h", "setting": "[1]; Run 2, 100 μg/ml CDDP", "value": 0.015}, {"measurement": "Average MTT 72 h", "setting": "[1]; Run 2, 100 μg/ml CDDP", "value": 0.012}, {"measurement": "CVE Average", "setting": "HT55 (colorectal cancer); HT55, Run 1, 24 h, 0.1 μg/ml CDDP", "value": 0.838}, {"measurement": "CVE Average", "setting": "HT55 (colorectal cancer); HT55, Run 1, 24 h, 1 μg/ml CDDP", "value": 0.557}, {"measurement": "CVE Average", "setting": "HT55 (colorectal cancer); HT55, Run 1, 24 h, 10 μg/ml CDDP", "value": 0.728}, {"measurement": "CVE Average", "setting": "HT55 (colorectal cancer); HT55, Run 1, 24 h, 100 μg/ml CDDP", "value": 0.383}, {"measurement": "CVE Average", "setting": "HT55 (colorectal cancer); HT55, Run 1, 48 h, 0.1 μg/ml CDDP", "value": 0.588}, {"measurement": "CVE Average", "setting": "HT55 (colorectal cancer); HT55, Run 1, 48 h, 1 μg/ml CDDP", "value": 0.314}, {"measurement": "CVE Average", "setting": "HT55 (colorectal cancer); HT55, Run 1, 48 h, 10 μg/ml CDDP", "value": 0.405}, {"measurement": "CVE Average", "setting": "HT55 (colorectal cancer); HT55, Run 1, 48 h, 100 μg/ml CDDP", "value": 0.269}, {"measurement": "CVE Average", "setting": "HT55 (colorectal cancer); HT55, Run 1, 72 h, 0.1 μg/ml CDDP", "value": 0.901}, {"measurement": "CVE Average", "setting": "HT55 (colorectal cancer); HT55, Run 1, 72 h, 1 μg/ml CDDP", "value": 0.437}, {"measurement": "CVE Average", "setting": "HT55 (colorectal cancer); HT55, Run 1, 72 h, 10 μg/ml CDDP", "value": 0.436}, {"measurement": "CVE Average", "setting": "HT55 (colorectal cancer); HT55, Run 1, 72 h, 100 μg/ml CDDP", "value": 0.243}, {"measurement": "CVE Average", "setting": "HT55 (colorectal cancer); HT55 Run 2, 24 h, 0.1 μg/ml CDDP", "value": 1.745}, {"measurement": "CVE Average", "setting": "HT55 (colorectal cancer); HT55 Run 2, 24 h, 1 μg/ml CDDP", "value": 0.942}, {"measurement": "CVE Average", "setting": "HT55 (colorectal cancer); HT55 Run 2, 24 h, 10 μg/ml CDDP", "value": 1.075}, {"measurement": "CVE Average", "setting": "HT55 (colorectal cancer); HT55 Run 2, 24 h, 100 μg/ml CDDP", "value": 0.758}, {"measurement": "CVE Average", "setting": "HT55 (colorectal cancer); HT55 Run 2, 48 h, 0.1 μg/ml CDDP", "value": 0.793}, {"measurement": "CVE Average", "setting": "HT55 (colorectal cancer); HT55 Run 2, 48 h, 1 μg/ml CDDP", "value": 0.23}, {"measurement": "CVE Average", "setting": "HT55 (colorectal cancer); HT55 Run 2, 48 h, 10 μg/ml CDDP", "value": 0.281}, {"measurement": "CVE Average", "setting": "HT55 (colorectal cancer); HT55 Run 2, 48 h, 100 μg/ml CDDP", "value": 0.286}, {"measurement": "CVE Average", "setting": "HT55 (colorectal cancer); HT55 Run 2, 72 h, 0.1 μg/ml CDDP", "value": 0.937}, {"measurement": "CVE Average", "setting": "HT55 (colorectal cancer); HT55 Run 2, 72 h, 1 μg/ml CDDP", "value": 0.395}, {"measurement": "CVE Average", "setting": "HT55 (colorectal cancer); HT55 Run 2, 72 h, 10 μg/ml CDDP", "value": 0.326}, {"measurement": "CVE Average", "setting": "HT55 (colorectal cancer); HT55 Run 2, 72 h, 100 μg/ml CDDP", "value": 0.244}, {"measurement": "CVE Average", "setting": "HT55 (colorectal cancer); HT55 Run 3, 24 h, 0.1 μg/ml CDDP", "value": 0.591}, {"measurement": "CVE Average", "setting": "HT55 (colorectal cancer); HT55 Run 3, 24 h, 1 μg/ml CDDP", "value": 0.201}, {"measurement": "CVE Average", "setting": "HT55 (colorectal cancer); HT55 Run 3, 24 h, 10 μg/ml CDDP", "value": 0.812}, {"measurement": "CVE Average", "setting": "HT55 (colorectal cancer); HT55 Run 3, 24 h, 100 μg/ml CDDP", "value": 0.15}, {"measurement": "CVE Average", "setting": "HT55 (colorectal cancer); HT55 Run 3, 48 h, 0.1 μg/ml CDDP", "value": 1.099}, {"measurement": "CVE Average", "setting": "HT55 (colorectal cancer); HT55 Run 3, 48 h, 1 μg/ml CDDP", "value": 0.561}, {"measurement": "CVE Average", "setting": "HT55 (colorectal cancer); HT55 Run 3, 48 h, 10 μg/ml CDDP", "value": 1.712}, {"measurement": "CVE Average", "setting": "HT55 (colorectal cancer); HT55 Run 3, 48 h, 100 μg/ml CDDP", "value": 0.285}, {"measurement": "CVE Average", "setting": "HT55 (colorectal cancer); HT55 Run 3, 72 h, 0.1 μg/ml CDDP", "value": 1.228}, {"measurement": "CVE Average", "setting": "HT55 (colorectal cancer); HT55 Run 3, 72 h, 1 μg/ml CDDP", "value": 0.577}, {"measurement": "CVE Average", "setting": "HT55 (colorectal cancer); HT55 Run 3, 72 h, 10 μg/ml CDDP", "value": 2.329}, {"measurement": "CVE Average", "setting": "HT55 (colorectal cancer); HT55 Run 3, 72 h, 100 μg/ml CDDP", "value": 0.431}]}]}
